From ChEMBL document CHEMBL3244151, “9-hydroxy-1,2,3,4,5,6-hexahydro-1,5-methano-3-benzazocine derivatives as analgesics” (1977) come the findings set out here.

The test system of this experiment is Mus musculus. Description: Analgesic activity in sc dosed albino dd mouse by tail pressure stimuli method. It is filed as functional.
Molecule `Br.CN1C[C@@H]2Cc3ccc(O)cc3[C@@](C)(C2)C1` had a median effective dose (ED50) of 8.4 mg/kg.

Take `Br.C[C@H]1[C@H]2Cc3ccc(O)cc3[C@]1(C)CN(C)C2`: the ED50 was 28 mg/kg. The molecule `Br.C[C@@H]1[C@H]2Cc3ccc(O)cc3[C@]1(C)CN(C)C2` had an ED50 of 32.8 mg/kg. With `CN1C[C@@H]2Cc3ccccc3[C@@](C)(C2)C1.Cl` the figure was over 50 mg/kg; with `COc1ccc2c3c1O[C@H]1[C@@H](O)C=C[C@H]4[C@@H](C2)N(C)CC[C@@]341.COc1ccc2c3c1O[C@H]1[C@@H](O)C=C[C@H]4[C@@H](C2)N(C)CC[C@@]341.O.O=P(O)(O)O.O=P(O)(O)O` [CODEINE PHOSPHATE], 9.2 mg/kg.
